Test results taken from patent US20230392127A1, “METHOD FOR CONSTRUCTION OF ATOPIC DERMATITIS MODEL BY USING PLURIPOTENT STEM CELL-DERIVED SKIN ORGANOID” (KANGSTEM BIOTECH CO., LTD., priority 2020, published 2023).

How the values were obtained:
[1] = tested on: induced pluripotent stem cell-derived skin organoids; experiment: Skin organoid size and cartilage formation after Wnt signaling pathway activation (brightfield images); type: cell-based, human
Description: A skin organoid was cultured based on the literature disclosing an existing skin organoid differentiation protocol using induced pluripotent stem cell lines (Lee, J. et al. Hair-bearing human skin generated entirely from pluripotent stem cells. Nature 582, 399-404(2020)). The induced pluripotent stem cell colony was separated into small cell populations using ReLeSR™ (Stem Cell Technology) and then separated into single cells using Accutase (ThermoFisher). For embryoid body formation, 1000 single cells were aliquoted into each well of a U-bottom low-attachment 96-well plate (Corning). Essential 8 (Gibco) supplemented with Y-27632 (20 μM) was used as an embryoid body culture solution. The single cells were cultured for 2 days until the embryoid body grew to a size of 300 to 500 μm. On day 2 of differentiation, the formed embryoid bodies were transferred to a culture solution including 2% Matrigel (Matrigel; Corning), 10 μM SB431542 (Tocris), 4 ng/ml FGF2 (PeproTech) and 15 ng/ml BMP4 (PeproTech) for non-neural ectoderm differentiation induction. […] The skin organoid to be analyzed was photographed with an EVOS XL Core brightfield system microscope (Thermo Fisher) at ×40 magnification. […]

[2] = tested on: cartilage expression markers COL2A, ACAN, and SOX9; experiment: Real-time PCR of cartilage expression markers in skin organoids; type: cell-based, human; conditions: skin organoids on day 69; real-time PCR normalized to GAPDH; CHIR(+) vs CHIR(-); FIG. 8
Description: As a method for evaluating gene expression, cells were lysed and genes were extracted using a lysis buffer, and gene expression was quantified using RT-PCR. To evaluate gene expression, total RNA was isolated with an RNeasy kit (Qiagen, Cat. No. 74106) and cDNA was prepared according to the manufacturer's instructions using Reverse Transcriptase III (Thermo Fisher Scientific, Cat. No. 4368814). Real-time PCR was performed using SRBR Green Master Mix (Thermo Fisher Scientific, Cat. No. A25776) and detection was performed using a Step One Plus Real-time PCR system (Applied Biosystems). The expression of genes was normalized to the expression of glyceraldehyde-3-phosphate dehydrogenase (GAPDH). The degree of gene expression was evaluated using primers specific for COL2A, ACAN, and SOX9 mRNAs.

## Cc1c[nH]c(-c2cnc(NCCNc3ccc(C#N)cn3)nc2-c2ccc(Cl)cc2Cl)n1 [CHIR-99021]
[1]; 0.5 to 8 μM added on day 6, organoids on days 38, 65 and 85, vs CHIR(-), FIG. 7
  cartilage formation in skin organoids: cartilage was not formed
[1]; 0.5 to 8 μM added to culture solution on day 6 of differentiation, compared to skin organoids generated by the existing method (CHIR(-)), FIGS. 6 and 7
  sizes of the organoids: remarkably increased
[2]
  gene expression level of cartilage expression marker ACAN: remarkably reduced
  gene expression level of cartilage expression marker COL2A: remarkably reduced
  gene expression level of cartilage expression marker SOX9: remarkably reduced
